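Cultured in 96-well plates, cells were exposed to test compound for 48 hours across five concentrations. GI50: concentration for 50% inhibition of growth. TGI: concentration producing complete growth inhibition.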
How the values were obtained:
Test in all cases: NCI tumour cell line growth inhibition, 48 h
[1] = tested on: 786-0 renal
[2] = tested on: A498 renal
[3] = tested on: A549 NSCLC
[4] = tested on: ACHN renal
[5] = tested on: BT-549 breast
[6] = tested on: CAKI-1 renal
[7] = tested on: CCRF-CEM leukemia
[8] = tested on: COLO 205 colon
[9] = tested on: DU-145 prostate
[10] = tested on: EKVX NSCLC
[11] = tested on: HCC-2998 colon
[12] = tested on: HCT-116 colon
[13] = tested on: HCT-15 colon
[14] = tested on: HL-60(TB) leukemia
[15] = tested on: HOP-62 NSCLC
[16] = tested on: HOP-92 NSCLC
[17] = tested on: HS 578T breast
[18] = tested on: HT29 colon
[19] = tested on: IGROV1 ovarian
[20] = tested on: K-562 leukemia
[21] = tested on: KM12 colon
[22] = tested on: LOX IMVI melanoma
[23] = tested on: M14 melanoma
[24] = tested on: MALME-3M melanoma
[25] = tested on: MCF7 breast
[26] = tested on: MDA-MB-231 breast
[27] = tested on: MDA-MB-435
[28] = tested on: MOLT-4 leukemia
[29] = tested on: NCI-H226 lung
[30] = tested on: NCI-H23 lung
[31] = tested on: NCI-H460 lung
[32] = tested on: NCI-H522 lung
[33] = tested on: NCI/ADR-RES ovarian
[34] = tested on: OVCAR-3 ovarian
[35] = tested on: OVCAR-4 ovarian
[36] = tested on: OVCAR-5 ovarian
[37] = tested on: OVCAR-8 ovarian
[38] = tested on: PC-3 prostate
[39] = tested on: RPMI-8226 leukemia
[40] = tested on: SF-268 CNS
[41] = tested on: SF-295 CNS
[42] = tested on: SF-539 CNS
[43] = tested on: SK-MEL-2 melanoma
[44] = tested on: SK-MEL-28 melanoma
[45] = tested on: SK-MEL-5 melanoma
[46] = tested on: SN12C renal
[47] = tested on: SNB-19 CNS
[48] = tested on: SNB-75 CNS
[49] = tested on: SR leukemia
[50] = tested on: T-47D breast
[51] = tested on: TK-10 renal
[52] = tested on: U251 CNS
[53] = tested on: UACC-257 melanoma
[54] = tested on: UACC-62 melanoma
[55] = tested on: UO-31 renal
[56] = tested on: SK-OV-3 ovarian
[57] = tested on: SW-620 colon

Compound COc1cccc(C2SCC(=O)N2c2ccc(-c3ccc(-n4c(-c5ccccc5)nc5ccccc5c4=O)cc3)cc2)c1OC (configuration not stated) has a TGI [1] of over 100 µM, a TGI [2] of over 100 µM and a TGI [3] of over 100 µM. It also gave a TGI [4] of over 100 µM, a TGI [5] of over 100 µM and a TGI [6] of over 100 µM. The TGI [7] was over 100 µM, the TGI [8] was over 100 µM and the TGI [9] was over 100 µM. The TGI [10] was over 100 µM, the TGI [11] was over 100 µM and the TGI [12] was over 100 µM. The TGI [13] was over 100 µM, the TGI [14] was over 100 µM and the TGI [15] was over 100 µM. The TGI [16] was over 100 µM, the TGI [17] was over 100 µM and the TGI [18] was over 100 µM. For the same compound, the TGI [19] was over 100 µM, the TGI [20] was over 100 µM and the TGI [21] was over 100 µM. The TGI [22] was over 100 µM, the TGI [23] was over 100 µM and the TGI [24] was over 100 µM. It also gave a TGI [25] of over 100 µM, a TGI [26] of over 100 µM and a TGI [27] of over 100 µM. For the same compound, the TGI [28] was over 100 µM, the TGI [29] was over 100 µM and the TGI [30] was over 100 µM. It also gave a TGI [31] of over 100 µM, a TGI [32] of over 100 µM and a TGI [33] of over 100 µM. For the same compound, the TGI [34] was over 100 µM, the TGI [35] was over 100 µM and the TGI [36] was over 100 µM. It also gave a TGI [37] of over 100 µM, a TGI [38] of over 100 µM and a TGI [39] of over 100 µM. It also gave a TGI [40] of over 100 µM, a TGI [41] of over 100 µM and a TGI [42] of over 100 µM. For the same compound, the TGI [43] was over 100 µM, the TGI [44] was over 100 µM and the TGI [45] was over 100 µM. The TGI [46] was over 100 µM, the TGI [47] was over 100 µM and the TGI [48] was 89.1 µM. It also gave a TGI [49] of over 100 µM, a TGI [50] of over 100 µM and a TGI [51] of over 100 µM. The TGI [52] was over 100 µM, the TGI [53] was over 100 µM and the TGI [54] was over 100 µM. The TGI [55] was over 100 µM.
In the case of COc1ccc(C(=O)C2C(C#N)C(C#N)C3C=Cc4ccccc4N32)cc1 (configuration not stated), the GI50 [1] is reported as 4.43 µM, the TGI [1] is reported as over 100 µM and the GI50 [2] is reported as 0.244 µM. For the same compound, the TGI [2] was 3.13 µM, the GI50 [3] was 2.4 µM and the TGI [3] was over 100 µM. It also gave a GI50 [4] of 1.43 µM, a TGI [4] of over 100 µM and a GI50 [5] of 1.98 µM. For the same compound, the TGI [5] was over 100 µM, the GI50 [6] was 0.46 µM and the TGI [6] was over 100 µM. It also gave a GI50 [7] of 1.94 µM, a TGI [7] of over 100 µM and a GI50 [9] of 2.93 µM. The TGI [9] was over 100 µM, the GI50 [10] was 6.29 µM and the TGI [10] was over 100 µM. It also gave a GI50 [11] of 2.99 µM, a TGI [11] of over 100 µM and a GI50 [12] of 0.653 µM. The TGI [12] was 14.9 µM, the GI50 [13] was 0.844 µM and the TGI [13] was over 100 µM. The GI50 [14] was 1.23 µM, the TGI [14] was 19.5 µM and the GI50 [15] was 3.76 µM. It also gave a TGI [15] of over 100 µM, a GI50 [16] of 2.77 µM and a TGI [16] of over 100 µM. For the same compound, the GI50 [17] was 2.1 µM, the TGI [17] was over 100 µM and the GI50 [18] was 0.742 µM. For the same compound, the TGI [18] was over 100 µM, the GI50 [19] was 2.74 µM and the TGI [19] was over 100 µM. It also gave a GI50 [20] of 0.405 µM, a TGI [20] of over 100 µM and a GI50 [21] of 1.25 µM. The TGI [21] was over 100 µM, the GI50 [22] was 2.1 µM and the TGI [22] was over 100 µM. The GI50 [23] was 0.5 µM, the TGI [23] was over 100 µM and the GI50 [24] was 2.67 µM. It also gave a TGI [24] of over 100 µM, a GI50 [25] of 1.09 µM and a TGI [25] of over 100 µM. For the same compound, the GI50 [26] was 1.46 µM, the TGI [26] was 44.1 µM and the GI50 [27] was 0.335 µM. The TGI [27] was 1.24 µM, the GI50 [28] was 2.6 µM and the TGI [28] was over 100 µM. It also gave a GI50 [29] of 2.29 µM, a TGI [29] of 30.2 µM and a GI50 [30] of 3.62 µM. For the same compound, the TGI [30] was over 100 µM, the GI50 [31] was 0.749 µM and the TGI [31] was over 100 µM. It also gave a GI50 [32] of 2.45 µM, a TGI [32] of over 100 µM and a GI50 [33] of 0.571 µM. It also gave a TGI [33] of over 100 µM, a GI50 [34] of 0.642 µM and a TGI [34] of 4.22 µM. For the same compound, the GI50 [35] was 6 µM, the TGI [35] was over 100 µM and the GI50 [36] was 3.43 µM. For the same compound, the TGI [36] was over 100 µM, the GI50 [37] was 3.29 µM and the TGI [37] was over 100 µM. For the same compound, the GI50 [38] was 1.45 µM, the TGI [38] was over 100 µM and the GI50 [39] was 3.48 µM. The TGI [39] was over 100 µM, the GI50 [40] was 3.92 µM and the TGI [40] was over 100 µM. For the same compound, the GI50 [41] was 2.82 µM, the TGI [41] was over 100 µM and the GI50 [42] was 1.32 µM. For the same compound, the TGI [42] was 4.08 µM, the GI50 [43] was 7.44 µM and the TGI [43] was over 100 µM. For the same compound, the GI50 [44] was 3.77 µM, the TGI [44] was over 100 µM and the GI50 [45] was 3.49 µM. The TGI [45] was 19.8 µM, the GI50 [56] was 7.3 µM and the TGI [56] was over 100 µM. The GI50 [46] was 2.5 µM, the TGI [46] was over 100 µM and the GI50 [47] was 3.71 µM. The TGI [47] was over 100 µM, the GI50 [48] was 0.278 µM and the TGI [48] was 5.57 µM. It also gave a GI50 [49] of 0.544 µM, a TGI [49] of over 100 µM and a GI50 [57] of 0.714 µM. The TGI [57] was over 100 µM, the GI50 [50] was 23.9 µM and the TGI [50] was over 100 µM. It also gave a GI50 [51] of over 100 µM, a TGI [51] of over 100 µM and a GI50 [52] of 2.82 µM. It also gave a TGI [52] of over 100 µM, a GI50 [53] of over 100 µM and a TGI [53] of over 100 µM. It also gave a GI50 [54] of 0.781 µM, a TGI [54] of over 100 µM and a GI50 [55] of 1.95 µM. It also gave a TGI [55] of over 100 µM.
